Assay: Oil solubility test in benzyl benzoate (HPLC)
Assay type: physicochemical
Settings: organic solvent or mixture, thermodynamic from solid, 25° C., shaken 2 h
Method: The solubility test was performed by quantitative analysis using an external standard method of high-performance liquid chromatography.
Reference sample solution: 10 mg of reference sample was weighed, placed in a 20 mL volumetric flask, diluted to the scale with 80% acetonitrile, and shaken uniformly.
Test sample solution: an appropriate amount of sample was dissolved in benzyl benzoate to obtain a saturated solution. The mixture was placed in a shaker and shaken at 25° C. and 800 rpm for 2 h. The sample solution was filtered, and 100 μL of filtrate was added to a 10 mL volumetric flask, diluted to the scale with 80% acetonitrile, and shaken uniformly.

SMILES	solubility at 2 h [mg/mL]
CCCCCCCCCCCC(=O)OCn1c(=O)cc(F)c2ccc(CCN3CCN(c4cc(F)cc5sccc45)CC3)cc21 [Compound 38, (4-Fluoro-7-(2-(4-(6-fluorobenzo[b]thiophen-4-yl)piperazin-1-yl)ethyl)-2-oxoquinolin-1(2H)-yl)methyl dodecanoate]	> 200
CCCCCCCCCCCC(=O)OCN1C(=O)CC(C)(C)c2ccc(CCN3CCN(c4cc(F)cc5sccc45)CC3)cc21 [Compound 43, (7-(2-(4-(6-Fluorobenzo[b]thiophen-4-yl)piperazin-1-yl)ethyl)-4,4-dimethyl-2-oxo-3,4-dihydroquinolin-1(2H)-yl)methyl dodecanoate]	> 200
[2H]c1cc(=O)n(COC(=O)CCCCCCCCCCC)c2cc(CCN3CCN(c4cc(F)cc5sccc45)CC3)ccc12 [Compound 51, (7-(2-(4-(6-Fluorobenzo[b]thiophen-4-yl)piperazin-1-yl)ethyl)-2-oxoquinolin-1(2H)-yl-4-d)methyl dodecanoate]	> 200
CCCCCCCC(=O)OCN1C(=O)CCc2ccc(CCN3CCN(c4cc(F)cc5sccc45)CC3)cc21 [Compound 61, (7-(2-(4-(6-Fluorobenzo[b]thiophen-4-yl)piperazin-1-yl)ethyl)-2-oxo-3,4-dihydroquinolin-1(2H)-yl) methyl octanoate]	> 200
CCCCCCCCC(=O)OCN1C(=O)CCc2ccc(CCN3CCN(c4cc(F)cc5sccc45)CC3)cc21 [Compound 62, (7-(2-(4-(6-Fluorobenzo[b]thiophen-4-yl)piperazin-1-yl)ethyl)-2-oxo-3,4-dihydroquinolin-1(2H)-yl) methyl nonanoate]	> 200
CCCCCCCCCCC(=O)OCN1C(=O)CCc2ccc(CCN3CCN(c4cc(F)cc5sccc45)CC3)cc21 [Compound 63, (7-(2-(4-(6-Fluorobenzo[b]thiophen-4-yl)piperazin-1-yl)ethyl)-2-oxo-3,4-dihydroquinolin-1(2H)-yl) methyl undecanoate]	> 200
CCCCCCCCCCCCC(=O)OCN1C(=O)CCc2ccc(CCN3CCN(c4cc(F)cc5sccc45)CC3)cc21 [Compound 64, (7-(2-(4-(6-Fluorobenzo[b]thiophen-4-yl)piperazin-1-yl)ethyl)-2-oxo-3,4-dihydroquinolin-1(2H)-yl) methyl tridecanoate]	> 200
CCCCCCCCCCCCCC(=O)OCN1C(=O)CCc2ccc(CCN3CCN(c4cc(F)cc5sccc45)CC3)cc21 [Compound 65, (7-(2-(4-(6-Fluorobenzo[b]thiophen-4-yl)piperazin-1-yl)ethyl)-2-oxo-3,4-dihydroquinolin-1(2H)-yl) methyl tetradecanoate]	> 200
CCCCCCCCCCCCCCC(=O)OCN1C(=O)CCc2ccc(CCN3CCN(c4cc(F)cc5sccc45)CC3)cc21 [Compound 66, (7-(2-(4-(6-Fluorobenzo[b]thiophen-4-yl)piperazin-1-yl)ethyl)-2-oxo-3,4-dihydroquinolin-1(2H)-yl) methyl pentadecanoate]	> 200
CCCCCCCCCCCCCCCCC(=O)OCN1C(=O)CCc2ccc(CCN3CCN(c4cc(F)cc5sccc45)CC3)cc21 [Compound 67, (7-(2-(4-(6-Fluorobenzo[b]thiophen-4-yl)piperazin-1-yl)ethyl)-2-oxo-3,4-dihydroquinolin-1(2H)-yl) methyl heptadecanoate]	> 200
CCCCCCCCCCCCCCCCCC(=O)OCN1C(=O)CCc2ccc(CCN3CCN(c4cc(F)cc5sccc45)CC3)cc21 [Compound 68, (7-(2-(4-(6-Fluorobenzo[b]thiophen-4-yl)piperazin-1-yl)ethyl)-2-oxo-3,4-dihydroquinolin-1(2H)-yl) methyl stearate]	> 200
CCCCCCCCCCCCCCCCCCCC(=O)OCN1C(=O)CCc2ccc(CCN3CCN(c4cc(F)cc5sccc45)CC3)cc21 [Compound 69, (7-(2-(4-(6-Fluorobenzo[b]thiophen-4-yl)piperazin-1-yl)ethyl)-2-oxo-3,4-dihydroquinolin-1(2H)-yl) methyl icosanoate]	> 200
CCCCCCCCCCNC(=O)OCN1C(=O)CCc2ccc(CCN3CCN(c4cc(F)cc5sccc45)CC3)cc21 [Compound 71, (7-(2-(4-(6-Fluorobenzo[b]thiophen-4-yl)piperazin-1-yl)ethyl)-2-oxo-3,4-dihydroquinolin-1(2H)-yl) methyl decylcarbamate]	> 200
C=CCCCCCCCCC(=O)OCN1C(=O)CCc2ccc(CCN3CCN(c4cc(F)cc5sccc45)CC3)cc21 [Compound 72, (7-(2-(4-(6-Fluorobenzo[b]thiophen-4-yl)piperazin-1-yl)ethyl)-2-oxo-3,4-dihydroquinolin-1(2H)-yl) methyl undec-10-enoate]	> 200
CCCCCCCC/C=C\CCCCCCCC(=O)OCN1C(=O)CCc2ccc(CCN3CCN(c4cc(F)cc5sccc45)CC3)cc21 [Compound 73, (7-(2-(4-(6-Fluorobenzo[b]thiophen-4-yl)piperazin-1-yl)ethyl)-2-oxo-3,4-dihydroquinolin-1(2H)-yl) methyl oleate]	> 200
CCCCCCCCCCCCCCCCCCCCCC(=O)OCN1C(=O)CCc2ccc(CCN3CCN(c4cc(F)cc5sccc45)CC3)cc21 [Compound 74, (7-(2-(4-(6-fluorobenzo[b]thiophen-4-yl)piperazin-1-yl)ethyl)-2-oxo-3,4-dihydroquinolin-1(2H)-yl)methyl docosanoate]	> 200
CCCCCCCCCCCCCCCCCCCCCCCC(=O)OCN1C(=O)CCc2ccc(CCN3CCN(c4cc(F)cc5sccc45)CC3)cc21 [Compound 75, (7-(2-(4-(6-Fluorobenzo[b]thiophen-4-yl)piperazin-1-yl)ethyl)-2-oxo-3,4-dihydroquinolin-1(2H)-yl) methyl tetracosanoate]	> 200
CCCCCCCCCCCCCCCCCCCCCCCCCCC(=O)OCN1C(=O)CCc2ccc(CCN3CCN(c4cc(F)cc5sccc45)CC3)cc21 [Compound 76, (7-(2-(4-(6-fluorobenzo[b]thiophen-4-yl)piperazin-1-yl)ethyl)-2-oxo-3,4-dihydroquinolin-1(2H)-yl)methyl heptacosanoate]	> 200
CCCCCCCC/C=C\CCCCCCCC(=O)OCn1c(=O)ccc2ccc(CCN3CCN(c4cc(F)cc5sccc45)CC3)cc21 [Compound 77, (7-(2-(4-(6-Fluorobenzo[b]thiophen-4-yl)piperazin-1-yl)ethyl)-2-oxoquinolin-1(2H)-yl)methyl oleate]	> 200
CCCCC(C)(C)C(=O)OCN1C(=O)CCc2ccc(CCN3CCN(c4cc(F)cc5sccc45)CC3)cc21 [Compound 108, (7-(2-(4-(6-Fluorobenzo[b]thiophen-4-yl)piperazin-1-yl)ethyl)-2-oxo-3,4-dihydroquinolin-1(2H)-yl) methyl 2,2-dimethylhexanoate]	> 200
CCCCCC(C)C(=O)OCN1C(=O)CCc2ccc(CCN3CCN(c4cc(F)cc5sccc45)CC3)cc21 (stereo not shown) [Compound 110, (7-(2-(4-(6-Fluorobenzo[b]thiophen-4-yl)piperazin-1-yl)ethyl)-2-oxo-3,4-dihydroquinolin-1(2H)-yl) methyl 2-methylheptanoate]	> 200
CCCCCC(CCCCC)C(=O)OCN1C(=O)CCc2ccc(CCN3CCN(c4cc(F)cc5sccc45)CC3)cc21 [Compound 112, (7-(2-(4-(6-Fluorobenzo[b]thiophen-4-yl)piperazin-1-yl)ethyl)-2-oxo-3,4-dihydroquinolin-1(2H)-yl) methyl 2-pentylheptanoate]	> 200

Reference: US20260250272A1, “N-SUBSTITUTED QUINOLINONE COMPOUND, PREPARATION METHOD THEREFOR AND USE THEREOF” (VIGONVITA LIFE SCIENCES CO., LTD., priority 2022, published 2026)
